Assays:
[1] = UV/Vis absorption spectra upon addition of metal ions; format: physicochemical; conditions: Cu^2+ 50.0 equiv; HEPES/CH3CN pH 7.2
Method: The photophysical properties of bi-julolidine compounds were investigated by monitoring the absorption spectral behavior upon addition of several metal ions such as Li^+, Na^+, Ba^2+, Sr^2+, Mg^2+, Al^3+, Ca^2+, Mn^2+, Fe^2+, Co^2+, Ni^2+, Zn^2+, Ag^+, Cd^2+, Hg^2+, Pb^2+ and Cu^2+ in an aqueous buffer medium (50 mM, 2-(4-(2-hydroxyethyl)-1-piperazin-yl)ethanesulfonic acid (HEPES)/CH3CN, 6:4, v/v; pH 7.2). […] With the addition of 50.0 equivalents of Co^2+, Ni^2+and Zn^2+, the absorbance intensity decreased and slightly red shifted to different extents (Ni^2+=408.5 nm; Zn^2+=410 nm; Co^2+=409 nm).
Representative examples are shown in FIG. 1 and FIG. 2 using compound 1 and 2, respectively.

[2] = UV/Vis absorption and colorimetric titration with increasing concentrations of Cu^2+; format: physicochemical; conditions: for extinction coefficient (ε) in the NIR region at maximum: at the Cu^2+ equivalents giving maximum NIR absorbance; for extinction coefficient (ε) at 570 nm at maximum: at the Cu^2+ equivalents giving maximum absorbance at 570 nm; for NIR λmax at maximum absorbance / final solution color: end of the Cu^2+ titration; for visual color change of solution: increasing concentration of Cu^2+ ions; for NIR band λmax / new absorption band in the visible region (λmax): on first appearance in the Cu^2+ titration (1.0 to 2.0 equivalents); for Cu^2+ added at which absorbance at 570 nm reached a maximum / Cu^2+ added at which absorbance in the NIR region reached a maximum: sequential titration, pH 7.2
Method: The spectral and colorimetric properties of bi-julolidine compounds were investigated by monitoring the absorption spectral behavior upon addition of increasing concentrations of Cu^2+ in an aqueous buffer medium (50 mM, 2-(4-(2-hydroxyethyl)-1-piperazin-yl)ethanesulfonic acid (HEPES)/CH3CN, 6:4, v/v; pH 7.2). During sequential titration, the absorption spectra of julolidine-carbonohydrazone compound in the visible region gradually shifted from 380 nm to 412 nm with the addition of 1.5 equivalents of Cu^2+ and the colorless solution turned to light green. Increasing the concentration of Cu^2+ in the solution of julolidine-carbonohydrazone compound from 1.5 to 2.0 equivalents led to a change in the solution color from light green to light purple. A new absorption band (λmax=570 nm) appeared in the visible region accompanied by a distinguishable NIR band with λmax centered at 930 nm. The absorbance at 570 nm reached a maximum upon addition of 6.0 equivalents of Cu^2+ with an extinction coefficient (ε) of 2×10^4 M^−1cm^−1 and then decreased with further addition of Cu^2+. The absorbance in the NIR region reached a maximum (ε=5.2×10^4 M^−1cm^−1) upon addition of a total of 8.0 equivalents of Cu^2+ with a gradual shift of λmax from 930 nm to 825 nm, and that remained unchanged upon further addition of Cu^2+. The final solution color of julolidine-carbonohydrazone compound was aqua colored.
During sequential titration of Cu^2+ with julolidine-thiocarbonohydrazone compound, two absorption bands appeared at 570 nm and 980 nm, after addition of 1.0 equivalent of Cu^2+. At that concentration of Cu^2+ ions, the color of the solution of julolidine-thiocarbonohydrazone compound changed from greenish to light purple. The absorbance at 570 nm and 980 nm were enhanced when Cu^2+ concentrations increased from 1.5 to 2.0 equivalents and the purple-colored solution turned to light violet. The absorbance at 570 nm reached a maximum at 5.0 equivalents of Cu^2+ with an extinction coefficient (ε) of 2×10^4 M^−1 cm^−1 and a consequent increase in the intensity of the NIR absorption band was observed. At that concentration of Cu^2+ ions, The solution color of julolidine-thiocarbonohydrazone compound changed from light violet to blue. […] The final solution color of julolidine-thiocarbonohydrazone compound was greenish aqua.

[3] = Specificity of Schiff-base compounds towards Cu^2+ ions (absorption spectra); format: physicochemical; conditions: for absorption band: absence of Cu^2+ ions; for characteristic absorbance in the NIR region / characteristic absorbance in the visible region: presence of Cu^2+ ions
Method: The specificity of bi-julolidine Schiff-base compounds, compound 1 and compound 2, in detecting Cu^2+ ions were investigated by monitoring the absorption spectral behavior of the compounds. The experiment was also performed using other Schiff-base compounds that were prepared by condensing different salicylaldehyde derivatives with carbohydrazide and thiocarbohydrazide (compounds 3-8, shown below).

[4] = Fluorometric detection of copper ions; format: physicochemical; conditions: for fluorescence emission: excitation at 430 nm, no metal ion
Method: The fluorometric behavior of julolidine-thiocarbonohydrazone compound was studied upon addition of 20.0 equivalents of Li^+, Na^+, Ba^2+, Sr^2+, Mg^2+, […], Ca^2+, Mn^2+, Fe^2+, CO^2+, Ni^2+, Zn^2+, Ag^+, Cd^2+, Hg^2+, Pb^2+ and Cu^2+ in an aqueous buffer medium (50 mM, 2-(4-(2-hydroxyethyl)-1-piperazin-yl)ethanesulfonic acid (HEPES)/CH3CN, 6:4, v/v; pH 7.2). […] The quenched fluorescence of julolidine-thiocarbonohydrazone compound was restored upon treating the julolidine-thiocarbonohydrazone compound —Cu^2+ complex with ethylenediaminetetraacetic acid (EDTA). Fluorescence emission of compound 2 with sequential addition of increasing concentrations (0 to 50 μM) of Cu^2+ is shown in FIG. 5B.

[5] = system: HEK 293T cells; test: Detection of Cu^2+ ions in cells using fluorescence microscopy; format: cell-based
Method: HEK 293T cells were grown to 50% confluency in a 30 mm dish containing Dulbecco's modified eagle medium (DMEM) and 10% fetal bovine serum (FBS) at 37° C. and 5% CO2. The cells were washed three times with phosphate-buffered saline (PBS) and stained with julolidine-thiocarbonohydrazone compound (10 μM final concentration) in the growth media without FBS for 10 minutes. The adherent cells were washed three times with PBS to remove excess compound. […] Further, the excess of Cu—(ClO4)2.6H2O was washed off with PBS and then supplemented with EDTA (10 μM) in DMEM without FBS for 10 minutes.

Structure (SMILES)	characteristic absorbance in the NIR region [1]	characteristic absorbance in the visible region [1] [nm]	extinction coefficient (ε) in the NIR region at maximum [2] [M⁻¹ cm⁻¹]	extinction coefficient (ε) at 570 nm at maximum [2] [M⁻¹ cm⁻¹]	NIR λmax at maximum absorbance [2] [nm]	final solution color [2]	visual color change of solution [2]	NIR band λmax [2] [nm]	new absorption band in the visible region (λmax) [2] [nm]	Cu^2+ added at which absorbance at 570 nm reached a maximum [2] [equivalents]	Cu^2+ added at which absorbance in the NIR region reached a maximum [2] [equivalents]	absorption band [3]	characteristic absorbance in the NIR region [3] [nm]	characteristic absorbance in the visible region [3] [nm]	also measured
O=C(N/N=C/c1cc2c3c(c1O)CCCN3CCC2)N/N=C/c1cc2c3c(c1O)CCCN3CCC2 [compound 1, julolidine-carbonohydrazone]	823 nm	495	52000	20000	825	aqua colored	light green, then to light purple, and then to aqua color	930	570	6.0	8.0	around 380 nm	825	495	absorption in the visible region, shifted from 380 nm ([2]; addition of 1.5 equivalents of Cu^2+): 412 nm
Oc1c(/C=N/NC(=S)N/N=C/c2cc3c4c(c2O)CCCN4CCC3)cc2c3c1CCCN3CCC2 [compound 2, julolidine-thiocarbonohydrazone]	around 820 nm	570	52000	20000	820	greenish aqua	from light green to light violet, then to light blue and then to greenish aqua	980	570	5.0	15.0	around 380 nm	825	570	fluorescence emission in the presence of other metal ions ([4]; 20.0 equivalents of Li+, Na+, Ba2+, Sr2+, Mg2+, Ca2+, Mn2+, Fe2+, Co2+, Ni2+, Zn2+, Ag+, Cd2+, Hg2+, Pb2+): no significant changes; fluorescence intensity around 535 nm in the presence of Cu^2+ ([4]; 430 nm excitation, 20.0 equivalents of Cu^2+): quenched; quenched fluorescence after treating the Cu^2+ complex with EDTA ([4]; EDTA): restored; fluorescence emission [4]: about 535 nm; fluorescence emission ([4]; listed as Julolidine-thiocarbonohydrazone compound): around 535 nm; fluorescence in cells after staining ([5]; 10 μM, 10 minutes, HEK 293T): presence of fluorescent julolidine-thiocarbonohydrazone compound in cells; intracellular fluorescence after Cu^2+ supplementation ([5]; Cu(ClO4)2.6H2O 10 μM, 10 minutes): complete suppression of intracellular fluorescence; intracellular fluorescence after EDTA ([5]; EDTA 10 μM, 10 minutes, after Cu^2+ was washed off): recovery of intracellular fluorescence; cell permeability ([5]; HEK 293T living cells): cell-permeable
